Where two headings read alike, the source gives them in different places. Where a SMILES comes first, the peptide text is derived from it.
Key:
MDA-MB-231 cells [1] = assay: Cell viability assay (CellTiter-Glo); type: cell-based, human
Excerpt: Assays are run in triplicate.

A-549 cells = settings: read-out: EC50 value; serum starved overnight, 24 h treatment; mean ± S.D. of two to three independent experiments
Method: (§1) Cells were plated into a 96-well plate (5,000 to 10,000 cells per well) in full growth media. The following day, media is exchanged for serum starved media (0.1% BSA in growth media without FBS) and incubated overnight. Cells were treated for 24 hours with peptides at varying concentrations range (0.78 to 200 µM). The cell viability is read using luminescent cell viability dye (CellTiter-Glo, Promega Corporation, USA) by adding 20 µL of dye to each well containing 100 µL of treated media. The cell viability is calculated by dividing each luminescent reading by the average of the luminescent readings for control, untreated cells. Assays are run in triplicate. Dose-response curves were generated and fitted in Prism 5.0 (GraphPad Software, Inc., USA). The EC50 values were generated using the log inhibitor-normalized response variable slope function (Y = 100/(1+10∧((LogEC50-X)*HillSlope)). EC50 values are shown with standard deviation values (S.D.) from at least three independent experiments. For comparison of MDA-MB-231 with HMEC, the cells were not serum starved and plated and treated in HMEC media.

[2] = tested on: HMEC (normal human mammary epithelial cells); settings: read-out: EC50 value; treated in HMEC media, 24 h; mean ± S.D.
Method: as §1

[3] = tested on: IMR-90 normal lung fibroblasts; settings: serum starved overnight, 24 h treatment; mean ± S.D.
Method: as §1

[4] = tested on: NR6 cells (EGFR null clone of NIH/3T3 fibroblasts); settings: read-out: EC50 value; serum starved overnight, 24 h treatment; mean ± S.D. of two to three independent experiments
Method: as §1

MDA-MB-231 cells [5] = assay: Cellular entry of FAM-labeled peptides, live-cell fluorescent confocal microscopy; type: cell-based, human; settings: N-terminally FAM-labeled peptide, 2.5 µM, serum starved cells in HBSS, live-cell confocal fluorescence
Method: MDA-MB-231 cells (1×10^5 cells per plate) were plated on 35 mm glass-bottom plates (MatTek Corporation, Ashland, MA), allowed to adhere overnight, then serum starved overnight and analyzed the following day in HBSS (Hank’s balanced salt solution). For real-time uptake of the FAM-labeled peptides, after recording background images, the FAM-labeled peptides were added and cells were imaged every two minutes over approximately 30 minutes. After 30 minutes, images were taken less frequently. Images from representative timepoints are shown. For overnight treatment, the cells were treated in serum-starved media, exchanged into HBSS the following day and imaged.

[6] = tested on: MDA-MB-231 xenograft tumors; assay: MDA-MB-231 xenografts in nude mice; type: in vivo
Method: NCR-nude female athymic mice were purchased from Taconic Farms, Inc. Mice were injected in the flank region with 1.5×10^6 MDA-MB-231 cells, while anesthetized with ketamine and xylazine. Prior to treatment, tumors were measured in three dimensions using a caliper and tumor volume was calculated by multiplying the three measured dimensions by 0.5 (V = 0.5*l*w*h). Once the tumors reached a minimum size of 100 mm^3, mice were injected intraperitoneally, twice a week, with 200 µL of the TE-64562 peptide (40 mg/kg; 7 µmol/kg), Tat peptide in PBS (20 mg/kg; 7 µmol/kg) or PBS. Endpoints were defined as the tumor size reaching 2000 mm^3 or 20 mm in any dimension, significant weight loss occurring or if the mouse appearing unhealthy according to body conditioning scoring standards. For histological analysis, organs were collected post-sacrifice and fixed in 4% formaldehyde in PBS, followed by paraffin embedding. Sections (6 µm thick) were mounted onto positively charged slides and H&E stained. Images were captured at 20× resolution on a Zeiss Axioplan 2 microscope.

[7] = tested on: EGFR dimerization in MDA-MB-231 cells; assay: EGFR dimer detection, BS3 cross-linking and Western blot; type: cell-based, human; settings: 25 µM, 30 minutes; reduction in the loading control (Stat3)
Method: Cells were plated in 10-cm dishes, grown to 80% confluence, serum starved overnight, treated and analyzed. For dose response assays, the peptides, EGFR-specific tyrosine kinase inhibitor (TKI) or control was added to each plate and incubated at 37°C for 30 minutes, followed by EGF (10 ng/mL) for an additional 10 minutes at 37°C. For timecourses, TE-64562 and/or EGF were added and the cells were incubated at 37°C for the indicated amounts of time. For EGFR dimer detection, cells were cross-linked after treatment using BS^3 crosslinker (bis[sulfosuccinimidyl] suberate, Thermo scientific, Inc) according to the manufacturer’s instructions. Immediately following treatment, cells were put on ice, washed twice with cold Tris-buffered saline (TBS, pH 7.4) and lysed with radio-immunoprecipitation buffer (50 mM Tris pH 7.5, 100 mM NaCl, 1% NP-40, 0.5% deoxycholate, 0.1% SDS, 1 mM EDTA and protease inhibitor cocktail). After protein concentration determination, cell lysates were analyzed by Western blot analysis with the indicated antibodies following standard procedures and visualized by chemiluminescence. Images were quantified using ImageJ Version 1.43 u.

CC[C@H](C)[C@H](NC(=O)[C@H](Cc1c[nH]cn1)NC(=O)[C@H](CCCNC(=N)N)NC(=O)[C@H](CCCNC(=N)N)NC(=O)[C@H](CCCNC(=N)N)NC(=O)CNC(=O)[C@H](CCCNC(=N)N)NC(=O)[C@H](CCCNC(=N)N)NC(=O)[C@H](CCCNC(=N)N)NC(=O)[C@H](CCC(N)=O)NC(=O)[C@H](CCCNC(=N)N)NC(=O)[C@H](CCCNC(=N)N)NC(=O)[C@H](CCCCN)NC(=O)[C@H](CCCCN)NC(=O)[C@@H](N)CCCNC(=N)N)C(=O)N[C@H](C(=O)N[C@@H](CCCNC(=N)N)C(=O)N[C@@H](CCCCN)C(=O)N[C@@H](CCCNC(=N)N)C(=O)N[C@H](C(=O)N[C@@H](CC(C)C)C(=O)N[C@@H](CCCNC(=N)N)C(=O)N[C@@H](CCCNC(=N)N)C(=O)N[C@@H](CC(C)C)C(=O)N[C@@H](CC(C)C)C(=O)N[C@@H](CCC(N)=O)C(=O)N[C@@H](CCC(=O)O)C(=O)N[C@@H](CCCNC(=N)N)C(=O)O)[C@@H](C)O)C(C)C [TE-64562] (H-RKKRRQRRRGRRRHIVRKRTLRRLLQER-OH)
EC50 (MDA-MB-231 cells [1]; cells not serum starved, plated and treated in HMEC media, 24 h, mean ± S.D., read-out: EC50): 7.4 ± 1.9 µM
EC50 (MDA-MB-231 cells [1]; serum starved overnight (0.1% BSA, no FBS), 24 h treatment, CellTiter-Glo, mean ± S.D. of at least three independent experiments, read-out: EC50± S.D.): 12.6 ± 2.3 µM
EC50 (A-549 cells): 6.1 ± 0.9 µM
EC50 [2]: 38.4 ± 6.1 µM
EC50 [3]: 174 ± 54 µM
EC50 [4]: 104 ± 9 µM
time until peptide entered cells (MDA-MB-231 cells [5]): approximately 10 minutes
toxicity in vivo ([6]; 40 mg/kg intraperitoneally bi-weekly): does not show any significant non-selective toxicity in vivo
body weight over the course of the study ([6]; 40 mg/kg intraperitoneally bi-weekly, versus Tat and saline groups): No significant difference in body weight
histological examination of post-treatment liver, spleen and kidney ([6]; end of 5 weeks of treatment, H&E): No differences between the treatment groups
toxicity to the cells in the dimerization experiment [7]: fairly toxic to the cells
